Assay results from ChEMBL document CHEMBL5143511, “Positioning of an unprecedented 1,5-oxaza spiroquinone scaffold into SMYD2 inhibitors in epigenetic space” (Eur J Med Chem, 2022).

Experiments:
[1] = molecular target: T1, N-lysine methyltransferase SMYD2 (Homo sapiens, UniProt Q9NRG4); experiment: Inhibition of SMYD2 (unknown origin) using 3H-SAM as substrate incubated for 1 hr by filter binding method
[2] = molecular target: T1, N-lysine methyltransferase SMYD2; experiment: Inhibition of SMYD2 (unknown origin) assessed as residual activity at 10 uM using 3H-SAM as substrate incubated for 1 hr by filter binding method relative to control
[3] = molecular target: Glycogen synthase kinase-3 beta (Homo sapiens, UniProt P49841); experiment: Inhibition of GSK3beta (unknown origin)
[4] = Drug concentration in ICR mouse plasma at 40 mg/kg, ip administered as vehicle 2 as corn oil suspension measured upto 1440 mins by HPLC analysis; assay type: ADME, organism-based
[5] = system: MDA-MB-453; experiment: Antitumor activity against human MDA-MB-453 cells xenografted in BALB/c nude mouse assessed as tumor growth inhibition rate at 40 mg/kg, ip measured after 15 days relative to control; assay type: functional; settings: MDA-MB-453, 360 h, time 15 day, read-out: TGI
[6] = Metabolic stability in mouse liver microsomes assessed as parent compound remaining at 5 uM preincubated for 5 mins with NADPH followed by compound addition and measured after 15 mins by LC-MS/MS analysis; assay type: ADME, Microsome; settings: read-out: Stability
[7] = system: MDA-MB-453; experiment: Antitumor activity against human MDA-MB-453 cells xenografted in BALB/c nude mouse assessed as reduction in tumor volume at 40 mg/kg, ip measured every 3 days for 8 days by caliper method (reference value: 152+/- 11 mm3); assay type: functional; settings: time 8 day
[8] = system: MDA-MB-231; experiment: Antiproliferative activity against human MDA-MB-231 cells assessed as inhibition of cell growth incubated for 72 hrs by CellTiter-Glo luminescent cell viability assay; assay type: functional, cell-based; settings: MDA-MB-231, 72 h
[9] = system: HEK293; experiment: Induction of apoptosis in HEK293 cells assessed as increase in cleaved PARP level incubated for 24 hrs by immunoblot analysis; assay type: toxicity, cell-based; settings: human, hek293, 24 h, DDE = dose-dependent effect, dose 0.0195-10 µM
[10] = Drug metabolism in liver microsomes (unknown origin) assessed as M-56 metabolite formation by LC-MS/MS analysis; assay type: ADME, Microsome
[11] = Tmax in ICR mouse at 40 mg/kg, ip administered as vehicle 2 as corn oil suspension measured upto 1440 mins by LC-MS/MS analysis; assay type: ADME, organism-based; settings: in vivo
[12] = AUCinfinity in ICR mouse at 40 mg/kg, ip administered as vehicle 1 as DMSO/Cremophor EL/ PEG400/ DDW formulation measured upto 1440 mins by LC-MS/MS analysis; assay type: ADME, organism-based; design: dose 40 mg/kg, time < 1440 min, route ip; settings: in vivo
[13] = Drug metabolism in liver microsomes (unknown origin) assessed as M+18 metabolite formation by LC-MS/MS analysis; assay type: ADME, Microsome
[14] = Drug metabolism in liver microsomes (unknown origin) assessed as M-115 metabolite formation by LC-MS/MS analysis; assay type: ADME, Microsome
[15] = Drug uptake in ICR mouse plasma assessed as time required to reach higher drug level at 40 mg/kg, ip administered as vehicle 1 as DMSO/Cremophor EL/ PEG400/ DDW formulation measured upto 1440 mins by HPLC analysis; assay type: ADME, organism-based
[16] = system: MDA-MB-453; experiment: Antitumor activity against human MDA-MB-453 cells xenografted in BALB/c nude mouse assessed as reduction in tumor weight at 40 mg/kg, ip measured after 15 days (reference value: 0.038 +/- 0.02 g); assay type: functional; settings: time 15 day
[17] = system: MDA-MB-453; experiment: cells; assay type: functional, cell-based; settings: Homo sapiens, MDA-MB-453, 72 h
Description: Antiproliferative activity against human MDA-MB-453 cells assessed as inhibition of cell growth incubated for 72 hrs by CellTiter-Glo luminescent cell viability assay

[18] = system: MDA-MB-453; experiment: Antitumor activity against human MDA-MB-453 cells xenografted in ip dosed BALB/c nude mouse assessed as reduction in tumor growth measured after 15 days; assay type: functional; settings: MDA-MB-453, 360 h, time 15 day
[19] = Drug metabolism in liver microsomes (unknown origin) assessed as M-254 metabolite formation by LC-MS/MS analysis; assay type: ADME, Microsome
[20] = Toxicity in […] xenografted with human MDA-MB-453 cells assessed as body weight loss at 40 mg/kg, ip administered as DMSO/Cremophor EL/ PEG400/ DDW formulation and measured after 4 days; assay type: organism-based; settings: in vivo, 96 h, time 4 day
[21] = AUCinfinity in ICR mouse at 40 mg/kg, ip administered as vehicle 2 as corn oil suspension measured upto 1440 mins by LC-MS/MS analysis; assay type: ADME, organism-based; design: time < 1440 min, dose 40 mg/kg, route ip; settings: in vivo
[22] = Drug metabolism in liver microsomes (unknown origin) assessed as M-78 metabolite formation by LC-MS/MS analysis; assay type: ADME, Microsome
[23] = Terminal half life in ICR mouse at 40 mg/kg, ip administered as vehicle 2 as corn oil suspension measured upto 1440 mins by LC-MS/MS analysis; assay type: ADME, organism-based; settings: in vivo, read-out: beta t1/2
[24] = system: MDA-MB-453; experiment: Antitumor activity against human MDA-MB-453 cells xenografted in BALB/c nude mouse assessed as reduction in tumor volume at 40 mg/kg, ip measured every 3 days for 15 days by caliper method (reference value: 177 +/- 19 mm3); assay type: functional; settings: time 15 day
[25] = system: MDA-MB-453; experiment: Antitumor activity against human MDA-MB-453 cells xenografted in BALB/c nude mouse assessed as reduction in tumor volume at 40 mg/kg, ip measured on day 1 by caliper method (reference value: 137 +/- 10 mm3); assay type: functional; settings: time 1 day
[26] = system: MDA-MB-453; experiment: Antitumor activity against human MDA-MB-453 cells xenografted in BALB/c nude mouse assessed as reduction in tumor volume at 40 mg/kg, ip measured on day 4 by caliper method (reference value: 145 +/- 11 mm3); assay type: functional; settings: time 4 day
[27] = system: Ca-Ski; experiment: cells; assay type: functional, cell-based; settings: Homo sapiens, 72 h
Description: Antiproliferative activity against human Ca-Ski cells assessed as inhibition of cell growth incubated for 72 hrs by CellTiter-Glo luminescent cell viability assay

[28] = Cmax in ICR mouse at 40 mg/kg, ip administered as vehicle 1 as DMSO/Cremophor EL/ PEG400/ DDW formulation measured upto 1440 mins by LC-MS/MS analysis; assay type: ADME, organism-based; design: dose 40 mg/kg, time < 1440 min, route ip; settings: in vivo
[29] = Terminal half life in ICR mouse at 40 mg/kg, ip administered as vehicle 1 as DMSO/Cremophor EL/ PEG400/ DDW formulation measured upto 1440 mins by LC-MS/MS analysis; assay type: ADME, organism-based; settings: in vivo, read-out: beta t1/2
[30] = AUClast in ICR mouse at 40 mg/kg, ip administered as vehicle 1 as DMSO/Cremophor EL/ PEG400/ DDW formulation measured upto 1440 mins by LC-MS/MS analysis; assay type: ADME, organism-based; design: time < 1440 min, dose 40 mg/kg, route ip; settings: in vivo
[31] = Tmax in ICR mouse at 40 mg/kg, ip administered as vehicle 1 as DMSO/Cremophor EL/ PEG400/ DDW formulation measured upto 1440 mins by LC-MS/MS analysis; assay type: ADME, organism-based; settings: in vivo
[32] = Cmax in ICR mouse at 40 mg/kg, ip administered as vehicle 2 as corn oil suspension measured upto 1440 mins by LC-MS/MS analysis; assay type: ADME, organism-based; design: time < 1440 min, dose 40 mg/kg, route ip; settings: in vivo
[33] = system: MDA-MB-453; experiment: Antitumor activity against human MDA-MB-453 cells xenografted in BALB/c nude mouse assessed as reduction in tumor volume at 40 mg/kg, ip measured every 3 days for 11 days by caliper method (reference value: 168 +/- 16 mm3); assay type: functional; settings: time 11 day
[34] = AUClast in ICR mouse at 40 mg/kg, ip administered as vehicle 2 as corn oil suspension measured upto 1440 mins by LC-MS/MS analysis; assay type: ADME, organism-based; design: dose 40 mg/kg, time < 1440 min, route ip; settings: in vivo
[35] = system: HEK293; experiment: Induction of apoptosis in HEK293 cells assessed as increase in cleaved PARP level at 0.0195 to 10 uM incubated for 24 hrs by immunoblot analysis; assay type: toxicity, cell-based; settings: human, hek293, 24 h, dose 0.0195-10 µM

T1 sequence (Q9NRG4 whole entry): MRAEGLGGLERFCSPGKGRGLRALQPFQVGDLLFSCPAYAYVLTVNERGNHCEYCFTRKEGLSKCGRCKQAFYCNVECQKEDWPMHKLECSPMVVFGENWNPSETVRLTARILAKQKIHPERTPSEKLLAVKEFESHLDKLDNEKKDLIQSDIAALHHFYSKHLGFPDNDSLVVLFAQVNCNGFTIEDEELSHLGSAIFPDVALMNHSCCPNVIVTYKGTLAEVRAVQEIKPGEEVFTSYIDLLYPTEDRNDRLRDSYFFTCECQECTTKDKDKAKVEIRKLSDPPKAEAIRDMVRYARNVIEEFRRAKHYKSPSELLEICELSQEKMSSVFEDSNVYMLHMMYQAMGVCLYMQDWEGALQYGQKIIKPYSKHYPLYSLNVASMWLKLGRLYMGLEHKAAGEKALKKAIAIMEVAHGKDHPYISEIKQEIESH
Chain of Glycogen synthase kinase-3 beta (P49841 whole entry): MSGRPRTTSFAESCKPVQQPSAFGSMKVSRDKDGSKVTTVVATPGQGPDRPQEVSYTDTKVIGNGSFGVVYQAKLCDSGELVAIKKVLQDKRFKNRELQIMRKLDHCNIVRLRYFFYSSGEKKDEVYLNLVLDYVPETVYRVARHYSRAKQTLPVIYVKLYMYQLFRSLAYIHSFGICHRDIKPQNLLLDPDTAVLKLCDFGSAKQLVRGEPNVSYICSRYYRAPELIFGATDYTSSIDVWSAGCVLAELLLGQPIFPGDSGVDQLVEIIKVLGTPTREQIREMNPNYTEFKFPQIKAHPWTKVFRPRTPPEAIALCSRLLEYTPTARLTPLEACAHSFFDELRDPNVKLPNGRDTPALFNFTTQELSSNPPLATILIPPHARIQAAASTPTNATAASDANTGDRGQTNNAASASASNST

CN1C(=O)C(CCO)COC12C=CC(=O)C=C2 (stereo not given)
IC50 [1]: > 30000 nM

CN1C(=O)C(CCNc2ccc(F)cc2)COC12C=CC(=O)C=C2 (stereo not given)
IC50 [1]: 11600 nM
Activity [2]: 20.6%

O=C1C=CC2(C=C1)OCC(Cc1cn(-c3cccc(Cc4ccccc4)c3)nn1)C(=O)N2c1ccccc1 (stereo not given)
IC50 [1]: 3060 nM
IC50 [3]: 1530 nM

CN1C(=O)C(CCNc2cccc(Cc3ccccc3)c2)COC12C=CC(=O)C=C2 (stereo not given)
IC50 [1]: 6200 nM
Activity [2]: 13.6%

CN1C(=O)C(CCO[Si](c2ccccc2)(c2ccccc2)C(C)(C)C)COC12C=CC(=O)C=C2 (stereo not given)
concentration at 24 h [4]: 279 ng/mL
inhibition in vivo at 40 mg/kg [5]: 77.7%
remaining at 0.25 h, 5 µM [6]: 1.22%
Activity [7]: 105 mm3
IC50 [8]: 85.4 nM
Activity [9]: Dde
Drug metabolism [10]: Metabolite_Detected
Tmax [11]: 1.17 h
IC50 [1]: 679 nM
AUC(0-inf) [12]: 6050 ng·h/mL
Drug metabolism [13]: Metabolite_Detected
Drug metabolism [14]: Metabolite_Detected
Tmax [15]: 8 h
Activity [16]: 0.009 g
IC50 [17]: 11.9 nM
ED50 [18]: < 40 mg/kg
Drug metabolism [19]: Metabolite_Detected
Activity [20]: Toxic
AUC(0-inf) [21]: 3130 ng·h/mL
Drug metabolism [22]: Metabolite_Detected
half-life [23]: 15.9 h
Activity [24]: 67 mm3
Activity [25]: 136 mm3
Activity [26]: 126 mm3
IC50 [27]: 180 nM
Cmax [28]: 1400 ng/mL
half-life [29]: 4.83 h
AUC(0-t) at 24 h [30]: 5810 ng·h/mL
Tmax [31]: 0.25 h
Cmax [32]: 301 ng/mL
Activity [33]: 87 mm3
AUC(0-t) at 24 h [34]: 1560 ng·h/mL

CC(C)N1C(=O)C(Cc2ccc(C(F)(F)F)cc2)COC12C=CC(=O)C=C2 (stereo not given)
IC50 [1]: > 20000 nM
Activity [2]: 33.8%

CN1C(=O)C(C/C=N/n2c3ccccc3c3ccccc32)COC12C=CC(=O)C=C2 (stereo not given)
IC50 [8]: 1080 nM
IC50 [1]: 3060 nM
IC50 [27]: 927 nM
Activity [2]: 19.9%

CC(C)[Si](OCCC1COC2(C=CC(=O)C=C2)N(C)C1=O)(C(C)C)C(C)C (stereo not given)
IC50 [1]: 678 nM

CN1C(=O)C(CCO[Si](c2ccccc2)(c2ccccc2)C(C)(C)C)COC12C=CC(=NNc1ccccc1)C=C2 (stereo not given)
IC50 [1]: 5800 nM

O=C1COc2c(CCNCCN(C(=O)CCNCCc3ccc(Cl)c(Cl)c3)C3CCCCC3)ccc(O)c2N1
IC50 [8]: 13100 nM
Activity [35]: Non-Toxic

CN1C(=O)C(CCNc2ccc(-c3cccs3)cc2)COC12C=CC(=O)C=C2 (stereo not given)
IC50 [1]: 2310 nM
Activity [2]: 16.1%

CC(C)N1C(=O)C(Cc2cc(C(F)(F)F)ccc2Cl)COC12C=CC(=O)C=C2 (stereo not given)
IC50 [1]: > 20000 nM
Activity [2]: 27.8%

CC(C)N1C(=O)C(Cc2cccc(Br)c2)COC12C=CC(=O)C=C2 (stereo not given)
IC50 [1]: > 20000 nM
Activity [2]: 42.5%

COc1ccc(N2CCCCC2)c(NCCC2COC3(C=CC(=O)C=C3)N(C)C2=O)c1 (stereo not given)
IC50 [1]: 5550 nM
Activity [2]: 14.2%

CN1C(=O)C(CCNc2cc(C(F)(F)F)cc(C(F)(F)F)c2)COC12C=CC(=O)C=C2 (stereo not given)
IC50 [8]: 667 nM
IC50 [1]: 2130 nM
IC50 [27]: 785 nM
Activity [2]: 6.94%

CC(C)N1C(=O)C(Cc2ccccc2CS(=O)(=O)c2ccccc2)COC12C=CC(=O)C=C2 (stereo not given)
IC50 [1]: > 20000 nM
Activity [2]: 50.4%

CC(C)N1C(=O)C(Cc2cc(C(F)(F)F)cc(C(F)(F)F)c2)COC12C=CC(=O)C=C2 (stereo not given)
IC50 [8]: 1030 nM
Activity [9]: Dde
IC50 [1]: 2390 nM
IC50 [27]: 733 nM
Activity [2]: 6.72%

CN1C(=O)C(CCNc2ccc(C(=O)c3ccccc3)cc2)COC12C=CC(=O)C=C2 (stereo not given)
IC50 [1]: > 20000 nM
Activity [2]: 44.6%
